Measured values reported in paper PMC7462507, “Noncompetitive Inhibition of Bovine Liver Catalase by Lawsone: Kinetics, Binding Mechanism and in silico Modeling Approaches” (Iranian Journal of Pharmaceutical Research : IJPR, 2020).

Molecular target: T1, bovine liver catalase (BLC) (Bos taurus, UniProt P00432)
T1 construct: gene CAT
T1 sequence (P00432 2-527): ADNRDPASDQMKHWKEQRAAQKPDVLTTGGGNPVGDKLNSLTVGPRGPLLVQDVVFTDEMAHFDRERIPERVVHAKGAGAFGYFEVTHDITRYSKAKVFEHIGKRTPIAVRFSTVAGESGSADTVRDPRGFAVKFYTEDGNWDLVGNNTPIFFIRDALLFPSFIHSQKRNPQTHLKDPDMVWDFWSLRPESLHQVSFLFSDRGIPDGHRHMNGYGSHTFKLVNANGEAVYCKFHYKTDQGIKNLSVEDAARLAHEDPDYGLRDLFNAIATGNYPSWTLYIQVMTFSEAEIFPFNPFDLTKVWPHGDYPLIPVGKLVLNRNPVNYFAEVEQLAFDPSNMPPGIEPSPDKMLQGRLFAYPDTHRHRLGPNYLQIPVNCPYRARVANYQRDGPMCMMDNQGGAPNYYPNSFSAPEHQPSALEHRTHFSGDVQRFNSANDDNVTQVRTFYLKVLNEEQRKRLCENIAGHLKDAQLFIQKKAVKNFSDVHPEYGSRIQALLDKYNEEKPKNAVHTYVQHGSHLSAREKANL
Experiment: UV kinetics of H2O2 decomposition at […] nm, Lineweaver-Burk (IC50 about […]); supported by fluorescence quenching, UV-vis and ATR-FTIR
Assay type: biochemical

O=C1C=C(O)C(=O)c2ccccc21 [LAW, 2-hydroxy-1,4-naphtoquinone]
Ki: 15.8 µM
